Test results published in PubChem BioAssay (NCI).
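All cell lines were grown in 96-well plates and treated with compound for 48 hours. TGI: total growth inhibition.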 Where a SMILES comes first, the peptide text is derived from it. [ ]: non-standard residue; d: D form. β3hI = CC[CH](C)[CH](N)CC(=O)O

Assays:
Test in all cases: growth of human tumour cells (NCI), 48 h
SF-295 CNS = test system: SF-295 CNS
SN12C renal = test system: SN12C renal
HCT-116 colon = test system: HCT-116 colon
OVCAR-4 ovarian = test system: OVCAR-4 ovarian
NCI-H226 lung = test system: NCI-H226 lung
HOP-62 NSCLC = test system: HOP-62 NSCLC
MALME-3M melanoma = test system: MALME-3M melanoma
SR leukemia = test system: SR leukemia
MDA-MB-435 = test system: MDA-MB-435
NCI-H460 lung = test system: NCI-H460 lung
OVCAR-3 ovarian = test system: OVCAR-3 ovarian

Row | SMILES | TGI (SF-295 CNS) [µM] | TGI (SN12C renal) [µM] | TGI (HCT-116 colon) [µM] | TGI (OVCAR-4 ovarian) [µM] | TGI (NCI-H226 lung) [µM] | TGI (HOP-62 NSCLC) [µM] | TGI (MALME-3M melanoma) [µM] | TGI (SR leukemia) [µM] | TGI (MDA-MB-435) [µM] | TGI (NCI-H460 lung) [µM] | TGI (OVCAR-3 ovarian) [µM]
1 | O=S(CCCl)c1c2ccccc2nc2ccccc12 (centres undefined) | > 100 | 88.7 | > 100 | > 100 | > 100 | > 100 | > 100 | > 100 | > 100 | > 100 | > 100
2 | COc1cc([N+](=O)[O-])ccc1NC1=CC(=O)CCC1 | > 100 | > 100 | > 100 | > 100 | > 100 | > 100 | > 100 | > 100 | > 100 | > 100 | > 100
3 | COC(=O)C1(Cc2ccccc2)Cc2ccc3c(c2C1=O)CCC3 (centres undefined) | > 100 | > 100 | > 100 | > 92.8 | > 100 | > 100 | 25.4 | > 73.4 | > 77.9 | > 100 | > 100
4 | N/N=C1\CCCc2c1no[n+]2[O-] | > 100 | > 100 | > 100 | > 100 | > 100 | > 100 | > 100 | > 100 | > 100 | > 100 | > 100
5 | Oc1ccc(Cn2c(-c3ccc(O)c(O)c3)nc3ccccc32)cc1O | 68 | 40.6 | 16.3 | 54.1 | 22.4 | 38 | 41.4 | 18.2 | 32 | 63.4 | 41.3
6 | CCOC(=O)CCC(NC(=O)c1ccc(Nc2nc3ccccc3nc2-c2cccs2)cc1)C(=O)OCC (centres undefined) | > 100 | > 100 | > 100 | > 100 | > 100 | > 100 | > 100 | > 100 | > 100 | > 100 | > 100
7 | CCOP(=O)(OCC)/C(C#N)=C/c1cccn1CC(C)C | > 100 | > 100 | > 100 | – | > 100 | > 100 | > 100 | > 100 | > 100 | > 100 | > 100
8 | CCOC(=O)CCC(NC(=O)c1ccc(OCc2nc3ccccc3n3cccc23)cc1)C(=O)OCC (centres undefined) | > 100 | > 100 | > 100 | > 100 | > 100 | > 100 | > 100 | > 100 | > 100 | > 100 | > 100
9 | O=[N+]([O-])c1cc(Cl)cc2cc(Cl)cnc12 | > 100 | > 100 | > 100 | > 100 | > 100 | > 100 | > 100 | > 100 | > 100 | > 100 | > 100
10 | CC1(C)CN=C(Nc2cccc(C(F)(F)F)c2)S1 | > 100 | > 100 | > 100 | > 100 | > 100 | > 100 | > 100 | > 100 | > 100 | – | > 100
11 | CC(C)NC(=O)OCCN=C1c2ccccc2CCc2ccccc21 | 28.7 | 46.2 | 46.6 | 43.1 | 60.5 | 70.1 | 36.3 | 53 | 55.1 | 76.9 | 58.5
12 | ClC1=C(Cc2ccccc2)Cc2ccc3c(c21)CCC3 | 91.8 | > 100 | 94.9 | > 100 | 74.1 | > 100 | 59.7 | 36.9 | 75.6 | – | 87.2
13 | CN(C1=NCCO1)c1cccc2c1CCCC2 | > 10 | > 10 | 8.95 | 7.78 | 6.14 | > 10 | 9.3 | > 10 | > 10 | > 10 | –
14 | O=c1[nH]nc(Cc2ccc(Cl)cc2)n1/N=C\CC/C=N\n1c(Cc2ccc(Cl)cc2)n[nH]c1=O | > 78.1 | > 100 | > 100 | > 100 | > 71 | 27.5 | > 84.7 | 14.8 | > 100 | > 100 | > 100
15 | COc1ccccc1Cn1nc(OC)c2cc([N+](=O)[O-])ccc21 | 20 | > 100 | > 100 | > 100 | > 100 | 20.3 | > 100 | > 100 | > 100 | > 100 | > 100
16 | CCC(C)C(CC(=O)N1CCCC1C(=O)NC(C(=O)NC(C(=O)NCC(=O)NC(CC(N)=O)C(=O)NC(C(=O)NC(C(=O)NC(CCCCN)C(N)=O)C(C)CC)C(C)CC)C(C)C)C(C)CC)NC(=O)C(N)C(C)CC (stereo not drawn) (H-I[β3hI]PIVGNIIK-NH2; configuration not given here) | > 50 | > 50 | > 50 | > 50 | > 50 | > 50 | > 50 | > 50 | > 50 | – | > 50
17 | Cn1c2ccccc2c(=NNc2ccccc2C(=O)O)c2ccccc21 | 82.6 | 83.1 | 37.7 | 44.9 | 45.8 | 75.4 | 43.7 | 44.6 | 39.6 | 39.7 | 28.5
18 | C=C1c2nc3ccccc3n2C=C(c2ccccc2)N1c1ccccc1 | > 100 | > 100 | > 100 | > 100 | > 100 | – | > 100 | > 100 | > 100 | 79.6 | > 100
19 | O=C(OC(=C(c1ccccc1)c1ccccc1)N1CCCC1=S)C(c1ccccc1)c1ccccc1 | > 10 | > 10 | > 10 | > 10 | > 10 | > 10 | > 10 | > 10 | > 10 | > 10 | > 10
20 | N#CC(c1cc2c(cc1Br)OCO2)N1CCOCC1 (centres undefined) | > 100 | > 100 | > 100 | > 100 | > 100 | > 100 | > 100 | 60.3 | 18.4 | > 100 | > 100
21 | Oc1c(C2=N[C@H]3CCCC[C@@H]3N2)ccc2ccccc12 | – | > 100 | > 100 | > 100 | > 100 | > 80.6 | > 100 | > 100 | > 100 | > 100 | > 100

Row | SMILES | TGI (SF-295 CNS) [µM] | TGI (SN12C renal) [µM] | TGI (HCT-116 colon) [µM] | TGI (OVCAR-4 ovarian) [µM] | TGI (NCI-H226 lung) [µM] | TGI (HOP-62 NSCLC) [µM] | TGI (MALME-3M melanoma) [µM] | TGI (SR leukemia) [µM] | TGI (MDA-MB-435) [µM] | TGI (NCI-H460 lung) [µM] | TGI (OVCAR-3 ovarian) [µM]
22 | OC1CN2CCS[C@H]2C(O)C1O (some centres undefined) | > 100 | – | > 100 | > 100 | > 100 | > 100 | > 100 | > 100 | > 100 | > 100 | > 100
23 | CCOC(=O)CCC(NC(=O)Cc1ccc(Oc2nc3ccccc3nc2-c2cccs2)cc1)C(=O)OCC (centres undefined) | > 100 | > 100 | > 100 | 94 | 86.2 | 11.8 | > 100 | > 100 | > 100 | > 100 | 29.2
24 | COc1ccc(O)c(C=NCCCN=Cc2cc(OC)ccc2O)c1 | 51.1 | 83.5 | > 100 | > 100 | 73.2 | > 100 | 62.7 | > 100 | 86.4 | > 100 | 37.3
25 | N#CC1=C(N)OC(c2ccc([N+](=O)[O-])cc2)C1(C#N)C#N (centres undefined) | > 71.3 | 32.2 | 34.8 | 33.7 | 41.5 | > 53 | 24.1 | 41.7 | > 50.4 | – | –
26 | O=[N+]([O-])c1cc(-[n+]2cc([O-])on2)ccc1F | 31.5 | 31.2 | 28.6 | 30.4 | 47 | 30.3 | 29 | > 100 | 29.8 | 39.3 | 32.6
27 | COc1cccc(/C=C2\CCCCCC2=O)c1 | > 100 | > 100 | > 100 | > 100 | > 100 | > 100 | > 100 | > 100 | > 100 | > 100 | > 100
28 | NS(=O)(=O)c1ccc(CNc2nc(-c3cccs3)nc3ccc(I)cc23)cc1 | 38 | 57.7 | 28.1 | 60.5 | 40.1 | 49.9 | 27.9 | 42.8 | 27.8 | 29.6 | 30.1
29 | CCCCn1c2c(n(CCCC)c1=S)-c1c(n(CCCC)c(=S)n1CCCC)SSSS2 | > 100 | 14.7 | 11.8 | 9.6 | 80.8 | 36.6 | 2.03 | > 100 | 23.9 | > 93.6 | 2.65
30 | CN(C)c1nc(-c2ccccc2)c(C(=O)c2c[nH]c3ccccc23)s1 | > 100 | > 100 | > 100 | > 100 | > 100 | > 100 | > 100 | > 100 | > 31.1 | > 79.2 | > 94.4
31 | CCOC(=O)c1[nH]c2ccccc2c1C(=O)C[C@H](NC(=O)C(F)(F)F)C(=O)OC | > 100 | > 100 | > 100 | > 100 | > 100 | > 100 | > 100 | > 100 | > 100 | > 100 | > 100
32 | O=C(c1cccnc1)N1N=C(c2ccc(Cl)cc2)CC1(O)c1cc(F)c(Cl)cc1Cl (centres undefined) | 56.1 | 37.5 | 52.8 | > 100 | 43.3 | 91.3 | > 100 | > 100 | > 100 | > 100 | 26.9
33 | CCOP(=O)(C=C=C(C)C)OCC | > 100 | > 100 | > 100 | > 100 | > 100 | > 100 | > 100 | > 100 | > 100 | > 100 | > 100
34 | COC(=O)CCn1cnc2c(SC)ncnc21 | > 100 | > 100 | > 100 | > 100 | > 100 | > 100 | > 100 | > 100 | > 100 | > 100 | > 100
35 | O=C(CCc1cccc(O)c1)NCCc1ccc(O)cc1 | > 100 | > 100 | > 100 | > 100 | > 100 | > 100 | > 100 | > 100 | > 100 | > 100 | > 100
36 | COc1ccc2c(c1)N=C1CSC(c3cc([N+](=O)[O-])ccc3Cl)N1C2 (centres undefined) | > 100 | 89.6 | 47.4 | > 100 | > 100 | 97.2 | 60.4 | 70.1 | 47.6 | 45.4 | –
37 | CCN(CC)CCCNc1nc2ccccc2c2[nH]c3ccc(OC)cc3c12 | 2.39 | 7.1 | 1.95 | 2.64 | 9.83 | 3 | 3.41 | 5.95 | 2.99 | 1.57 | > 10
38 | COC(=O)C(Cc1ccccc1)OC(=O)C(N)CC(=O)O (centres undefined) | > 100 | > 100 | > 100 | – | > 100 | > 100 | > 100 | > 100 | > 100 | > 100 | > 100
39 | NCCCN1CCN(CC(=O)O)CCN(CCCN)CCN(CC(=O)O)CC1 | > 100 | > 100 | > 100 | > 100 | > 100 | > 100 | > 100 | > 100 | > 100 | > 100 | > 100
40 | CN(/N=C/C=N/N(C)C1=NCCCCN1)C1=NCCCCN1 | > 100 | > 100 | > 100 | > 100 | > 100 | > 100 | > 100 | > 100 | > 100 | > 100 | > 100
41 | CCOC(=O)NC(NC(C)CC)(C(F)(F)F)C(F)(F)F (centres undefined) | > 100 | > 100 | > 100 | > 100 | > 100 | > 100 | > 100 | > 100 | > 100 | > 100 | > 100
